Where two headings read alike, the source gives them in different places.
Legend:
Type in all cases: biochemical
Btk = biological target: T1, Btk (Homo sapiens, UniProt Q06187); experiment: Btk in vitro inhibitory activity (one of Method A TR-FRET, Method B electrophoretic mobility shift, Method C radiometric filter binding)
T1 construct: purified from insect cells as a full-length construct containing a N-terminal 6X-His tag; His6 (N); made in house; host or cells: insect cells (Method C)
Outline: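 Method A: TR-FRET with 0.5 nM Btk at [ATP]=Km, EDTA-quenched, 665/615 nm ratio; Ki(app) converted to IC50. Method B: 1 nM full-length His6 human BTK, 1 μM FAM peptide, pH 7.5, mobility-shift product/sum ratio, 12-point 4-parameter fit. Method C: radiometric filter binding, 8 nM His-tagged BTK, 0.2 mg/mL poly-Glu-Tyr.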

TEC = biological target: T2, TEC (Homo sapiens, UniProt P42680); experiment: Inhibition of a panel of kinases (in vitro HotSpot kinase assay, 33P-ATP, 1 μM ATP); details: for IC50: HotSpot kinase assay, 1 μM ATP; for TEC/Btk: ratio of TEC IC50 to Btk IC50 (selectivity)
T2 sequence (P42680 1-631): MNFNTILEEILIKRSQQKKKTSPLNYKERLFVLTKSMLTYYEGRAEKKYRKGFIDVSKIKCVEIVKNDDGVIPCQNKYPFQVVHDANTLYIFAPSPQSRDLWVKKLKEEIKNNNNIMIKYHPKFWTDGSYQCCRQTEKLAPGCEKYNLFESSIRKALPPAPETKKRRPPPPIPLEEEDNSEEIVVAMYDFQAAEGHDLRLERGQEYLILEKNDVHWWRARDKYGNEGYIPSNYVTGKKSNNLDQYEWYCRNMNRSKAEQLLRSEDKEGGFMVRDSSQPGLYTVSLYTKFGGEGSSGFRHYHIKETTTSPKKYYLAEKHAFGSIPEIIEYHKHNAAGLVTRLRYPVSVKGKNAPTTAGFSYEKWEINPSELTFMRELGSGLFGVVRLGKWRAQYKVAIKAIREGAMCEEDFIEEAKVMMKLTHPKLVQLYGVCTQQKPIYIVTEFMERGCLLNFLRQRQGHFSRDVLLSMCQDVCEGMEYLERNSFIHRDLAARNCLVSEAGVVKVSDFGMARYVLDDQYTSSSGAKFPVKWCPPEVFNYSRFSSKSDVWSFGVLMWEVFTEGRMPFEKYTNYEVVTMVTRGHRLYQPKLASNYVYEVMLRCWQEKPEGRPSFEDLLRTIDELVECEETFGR
Outline: (§1)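 Degree of kinase inhibition is determined in vitro using isolated enzymes, a matched substrate and radiolabelled ATP (1 μM).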

panel of kinases = biological target: T3, panel of kinases (Homo sapiens, UniProt P51813); experiment: Inhibition of a panel of kinases (in vitro HotSpot kinase assay, 33P-ATP, 1 μM ATP), other kinases; details: BMX wild-type, read-out: BMX-WT IC50
T3 sequence (P51813 1-675): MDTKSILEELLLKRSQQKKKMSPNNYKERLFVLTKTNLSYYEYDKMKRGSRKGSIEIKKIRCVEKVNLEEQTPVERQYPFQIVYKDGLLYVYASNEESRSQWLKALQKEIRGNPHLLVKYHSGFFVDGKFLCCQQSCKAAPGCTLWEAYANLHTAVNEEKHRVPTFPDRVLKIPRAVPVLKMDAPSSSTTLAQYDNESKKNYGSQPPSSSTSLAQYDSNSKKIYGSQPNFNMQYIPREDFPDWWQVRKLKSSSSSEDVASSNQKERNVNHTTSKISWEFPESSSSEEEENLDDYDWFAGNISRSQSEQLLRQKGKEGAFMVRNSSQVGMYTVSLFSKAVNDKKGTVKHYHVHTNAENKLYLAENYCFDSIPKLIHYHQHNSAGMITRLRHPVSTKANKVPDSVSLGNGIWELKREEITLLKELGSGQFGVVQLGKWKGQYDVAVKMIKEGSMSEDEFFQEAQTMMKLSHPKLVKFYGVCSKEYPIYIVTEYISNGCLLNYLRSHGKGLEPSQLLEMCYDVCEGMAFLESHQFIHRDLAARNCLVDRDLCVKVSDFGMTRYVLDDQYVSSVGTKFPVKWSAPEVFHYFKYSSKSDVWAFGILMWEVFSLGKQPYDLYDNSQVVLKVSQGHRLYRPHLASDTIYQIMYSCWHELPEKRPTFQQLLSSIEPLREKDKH
Outline: as §1

[1] = method is one of A, B or C, not stated which, read-out: IC50 values against Btk
[2] = wild-type Btk, read-out: Btk-WT IC50

T1 sequence (Q06187 whole entry): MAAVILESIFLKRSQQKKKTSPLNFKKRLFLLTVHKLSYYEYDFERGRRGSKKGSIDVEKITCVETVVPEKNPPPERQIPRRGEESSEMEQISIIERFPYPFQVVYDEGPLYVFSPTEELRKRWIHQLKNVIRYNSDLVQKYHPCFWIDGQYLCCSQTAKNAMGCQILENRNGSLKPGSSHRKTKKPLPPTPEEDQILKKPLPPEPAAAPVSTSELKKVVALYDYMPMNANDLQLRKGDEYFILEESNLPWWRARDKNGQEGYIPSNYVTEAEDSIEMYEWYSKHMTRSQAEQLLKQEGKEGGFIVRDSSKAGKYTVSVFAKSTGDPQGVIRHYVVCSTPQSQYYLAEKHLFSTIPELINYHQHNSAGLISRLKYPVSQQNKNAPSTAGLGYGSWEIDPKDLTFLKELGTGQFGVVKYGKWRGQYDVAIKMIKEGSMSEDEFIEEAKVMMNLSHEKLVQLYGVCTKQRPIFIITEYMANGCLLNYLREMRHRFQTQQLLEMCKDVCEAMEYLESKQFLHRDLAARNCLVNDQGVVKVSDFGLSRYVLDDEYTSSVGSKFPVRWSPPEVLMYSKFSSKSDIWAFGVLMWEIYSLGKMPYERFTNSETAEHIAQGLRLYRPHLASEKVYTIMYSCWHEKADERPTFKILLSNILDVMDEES

SMILES	IC50 (Btk; [1])	IC50 (Btk; [2])	IC50 (TEC)	TEC/Btk (TEC)	IC50 (panel of kinases)
CC(C)(C)c1ccc2c(c1)CCN(Cc1ccc(-c3ccnc4[nH]nc(N[C@H]5CC[C@H](O)CC5)c34)cc1F)C2=O [Compound 38, 6-tert-butyl-2-{[2-fluoro-4-(3-{[(11r,4r)-4-hydroxycyclohexyl]amino}-1H-pyrazolo[3,4-b]pyridin-4-yl)phenyl]methyl}-1,2,3,4-tetrahydroisoquinolin-1-one]	–	> 10000 nM	> 10000 nM	–	> 10000 nM
CC(=O)N[C@@H]1CCN(c2n[nH]c3nccc(-c4ccc(CNC(=O)c5ccc(C(C)(C)O)cn5)c(F)c4)c23)C1 [Example 424, N-[(4-{3-[(3R)-3-acetamidopyrrolidin-1-yl]-1H-pyrazolo[3,4-b]pyridin-4-yl}-2-fluorophenyl)methyl]-5-(2-hydroxypropan-2-yl)pyridine-2-carboxamide]	–	28.8 nM	5440 nM	–	6840 nM
C[C@@H](NC(=O)c1cc(C(C)(C)O)on1)c1ccc(-c2ccnc3[nH]nc(N4CCS(=O)(=O)CC4)c23)cc1 [Example 406, N-[(1R)-1-{4-[3-(1,1-dioxo-1λ^6-thiomorpholin-4-yl)-1H-pyrazolo[3,4-b]pyridin-4-yl]phenyl}ethyl]-5-(2-hydroxypropan-2-yl)-1,2-oxazole-3-carboxamide]	–	92.9 nM	4740 nM	–	5320 nM
CC1(C(=O)N2CC[C@H](Nc3n[nH]c4nccc(-c5ccc(CNC(=O)c6noc(C(C)(C)C)n6)c(F)c5)c34)C2)COC1 [Example 94, 5-tert-butyl-N-{[2-fluoro-4-(3-{[(3S)-1-(3-methyloxetane-3-carbonyl)pyrrolidin-3-yl]amino}-1H-pyrazolo[3,4-b]pyridin-4-yl)phenyl]methyl}-1,2,4-oxadiazole-3-carboxamide]	–	25.3 nM	> 10000 nM	>100	> 10000 nM
C=CC(=O)N1CC[C@@H](Nc2n[nH]c3nccc(-c4ccc(NC(=O)c5ccc(C(C)(C)C)cc5)c(F)c4)c23)C1 [Compound 45]	–	> 10000 nM	1920 nM	>100	449 nM
CC(C)(C)c1nc(C(=O)NCc2ccc(-c3ccnc4[nH]nc(N[C@H]5CC[C@H](N)CC5)c34)cc2F)no1 [Example 151, 5-tert-butyl-N-{[2-fluoro-4-(3-{[(1r,4r)-4-aminocyclohexyl]amino}-1H-pyrazolo[3,4-b]pyridin-4-yl)phenyl]methyl}-1,2,4-oxadiazole-3-carboxamide]	–	21.7 nM	8270 nM	–	8120 nM
C[C@@H](NC(=O)c1noc(C(C)(C)C)n1)c1ccc(-c2ccnc3[nH]nc(N[C@@H]4CCNC4)c23)cc1 [Example 73, 5-tert-butyl-N-[(1R)-1-[4-(3-{[(3R)-pyrrolidin-3-yl]amino}-1H-pyrazolo[3,4-b]pyridin-4-yl)phenyl]ethyl]-1,2,4-oxadiazole-3-carboxamide]	–	37.9 nM	> 10000 nM	>100	> 10000 nM

The next compounds have a lower IC50 (Btk; [2]) than those just listed; values first:

IC50 (Btk; [1])	IC50 (Btk; [2])	IC50 (TEC)	TEC/Btk (TEC)	IC50 (panel of kinases)	SMILES
< 10 nM	7.38 nM	7120 nM	965	5220 nM	CN(C)C(=O)N1CC[C@@H](Nc2n[nH]c3nccc(-c4ccc(CNC(=O)c5nc(C(C)(C)C)no5)c(F)c4)c23)C1 [Example 120, 3-tert-butyl-N-{[4-(3-{[(3R)-1-(dimethylcarbmoyl)pyrrolidin-3-yl]amino}-1H-pyrazolo[3,4-b]pyridin-4-yl)-2-fluorophenyl]methyl}-1,2,4-oxadiazole-5-carboxamide]
–	0.546 nM	177 nM	–	863 nM	C[C@H]1CC[C@@H](Nc2n[nH]c3nccc(-c4ccc(CNC(=O)c5nc(C(C)(C)C)no5)c(F)c4)c23)CN1C(=O)N1CCOCC1 [Example 409, 3-tert-butyl-N-{[2-fluoro-4-(3-{[(3R,6S)-6-methyl-1-(morpholine-4-carbonyl)piperidin-3-yl]amino}-1H-pyrazolo[3,4-b]pyridin-4-yl)phenyl]methyl}-1,2,4-oxadiazole-5-carboxamide]
< 10 nM	7.08 nM	2230 nM	315	2930 nM	C[C@H]1CC[C@@H](Nc2n[nH]c3nccc(-c4ccc(CNC(=O)c5noc(C(C)(C)C)n5)c(F)c4)c23)CN1CC#N [Example 143, 5-tert-butyl-N-{[4-(3-{[(3R,6S)-1-(cyanomethyl)-6-methylpiperidin-3-yl]amino}-1H-pyrazolo[3,4-b]pyridin-4-yl)-2-fluorophenyl]methyl}-1,2,4-oxadiazole-3-carboxamide]
< 10 nM	0.056 nM	28 nM	493	52 nM	C=CC(=O)N1CC[C@@H](Nc2n[nH]c3nccc(-c4ccc(CNC(=O)c5nc(C(C)(C)C)no5)c(F)c4)c23)C1 [Example 83, 3-tert-butyl-N-{[2-fluoro-4-(3-{[(3R)-1-(prop-2-enoyl)pyrrolidin-3-yl]amino}-1H-pyrazolo[3,4-b]pyridin-4-yl)phenyl]methyl}-1,2,4-oxadiazole-5-carboxamide]
–	0.0926 nM	289 nM	3121	249 nM	CC(C)(C)c1noc(C(=O)NCc2ccc(-c3ccnc4[nH]nc(N5CCC(NS(=O)(=O)C6CC6)CC5)c34)cc2F)n1 [Example 224, 3-tert-butyl-N-{[4-(3-{4-[(cyclopropanesulfonyl)amino]piperidin-1-yl}-1H-pyrazolo[3,4-b]pyridin-4-yl)-2-fluorophenyl]methyl}-1,2,4-oxadiazole-5-carboxamide]
–	4.73 nM	5560 nM	1175	5010 nM	CN1CCCN([C@@H]2CCN(c3n[nH]c4nccc(-c5ccc(CNC(=O)c6nc(C(C)(C)C)no6)c(F)c5)c34)C2)C1=O [Example 241, 3-tert-butyl-N-[(2-fluoro-4-{3-[(3R)-3-(3-methyl-2-oxo-1,3-diazinan-1-yl)pyrrolidin-1-yl]-1H-pyrazolo[3,4-b]pyridin-4-yl}phenyl)methyl]-1,2,4-oxadiazole-5-carboxamide]
–	1.26 nM	905 nM	718	2200 nM	CCNC(=O)N1C[C@H](Nc2n[nH]c3nccc(-c4ccc(CNC(=O)c5nc(C(C)(C)C)no5)c(F)c4)c23)CC[C@@H]1C [Example 209, (2S,5R)-5-{[4-(4-{[(3-tert-butyl-1,2,4-oxadiazole-5-carbonyl)amino]methyl}-3-fluorophenyl)-1H-pyrazolo[3,4-b]pyridin-3-yl]amino}-N-ethyl-2-methylpiperidine-1-carboxamide]
–	0.355 nM	381 nM	1073	1040 nM	C[C@@H](NC(=O)c1nc(C(C)(C)C)no1)c1ccc(-c2ccnc3[nH]nc(N[C@@H]4CC[C@H](C)N(C(=O)N(C)C)C4)c23)cc1F [Example 193, (2S,5R)-5-{[4-(4-{(1R)-1-[(3-tert-butyl-1,2,4-oxadiazole-5-carbonyl)amino]ethyl}-3-fluorophenyl)-1H-pyrazolo[3,4-b]pyridin-3-yl]amino}-N,N,2-trimethylpiperidine-1-carboxamide]
< 10 nM	0.57 nM	318 nM	558	275 nM	C=CC(=O)N1CC[C@@H](Nc2n[nH]c3nccc(-c4cccc(NC(=O)c5ccc(C(C)(C)C)cc5)c4CO)c23)C1 [Example 161, 4-tert-butyl-N-[2-(hydroxymethyl)-3-(3-{[(3R)-1-(prop-2-enoyl)pyrrolidin-3-yl]amino}-1H-pyrazolo[3,4-b]pyridin-4-yl)phenyl]benzamide]

From US20180194762A1 (Pharmacyclics LLC, priority 2017, published 2018)
